Measurements as given in US9738655B2, “Tetrahydroisoquinolines containing substituted azoles as factor XIa inhibitors” (BRISTOL-MYERS SQUIBB COMPANY, priority 2013, dated 2017).
Where a name gives a salt, the structure may show the parent alone. Read-outs that look alike come from different tables or passages of the source.

Key:
[1] = target: purified human plasma kallikrein (Homo sapiens (Human), UniProt P03952); test: Plasma kallikrein enzyme inhibition assay (chromogenic substrate S-2302); type: biochemical
Experimental: The effectiveness of compounds of the present invention as inhibitors of the coagulation Factors XIa, VIIa, IXa, Xa, XIIa, plasma kallikrein or thrombin, can be determined using a relevant purified serine protease, respectively, and an appropriate synthetic substrate. The rate of hydrolysis of the chromogenic or fluorogenic substrate by the relevant serine protease was measured both in the absence and presence of compounds of the present invention. […] A decrease in the rate of absorbance or fluorescence change in the presence of inhibitor is indicative of enzyme inhibition. […] The results of this assay are expressed as the inhibitory constant, Ki.
Values of Ki were determined by allowing the protease to react with the substrate in the presence of the inhibitor.
The following relationships were used to calculate Ki values: (Vmax*S)/(Km+S); (vo−vs)/vs=I/(Ki(1+S/Km)) for a competitive inhibitor with one binding site; or vs/vo=A+((B−A)/1+((IC50/(I)n))); and Ki−IC50/((1+S/Km) for a competitive inhibitor where:

[2] = target: purified human Factor XIa (Homo sapiens (Human), UniProt P03951); test: Factor XIa enzyme inhibition assay (chromogenic substrate S-2366)
[3] = read-out: Factor XIa Ki, measured at 25° C.
[4] = measured at 25° C. (no asterisk)

purified human plasma kallikrein, sequence (P03952 391-638): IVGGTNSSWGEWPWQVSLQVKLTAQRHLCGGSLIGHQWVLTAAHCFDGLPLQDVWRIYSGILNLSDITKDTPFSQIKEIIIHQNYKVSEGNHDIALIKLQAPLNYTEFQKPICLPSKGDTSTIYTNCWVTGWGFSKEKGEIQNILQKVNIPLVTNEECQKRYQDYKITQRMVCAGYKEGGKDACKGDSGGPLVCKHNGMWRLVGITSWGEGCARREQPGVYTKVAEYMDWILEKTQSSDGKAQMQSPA
purified human plasma kallikrein, sequence (P03952 20-390 partner): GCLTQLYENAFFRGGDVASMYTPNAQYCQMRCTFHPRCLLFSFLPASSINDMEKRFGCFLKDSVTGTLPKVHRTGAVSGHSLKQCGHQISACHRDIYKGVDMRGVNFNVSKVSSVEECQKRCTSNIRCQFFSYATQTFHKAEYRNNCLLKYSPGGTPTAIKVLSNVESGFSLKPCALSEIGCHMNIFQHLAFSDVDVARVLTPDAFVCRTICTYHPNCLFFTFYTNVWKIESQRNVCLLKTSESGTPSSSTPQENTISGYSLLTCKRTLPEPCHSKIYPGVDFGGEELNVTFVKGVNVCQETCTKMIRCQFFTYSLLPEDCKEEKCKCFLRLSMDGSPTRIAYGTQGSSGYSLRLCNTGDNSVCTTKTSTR
purified human Factor XIa, sequence (P03951 388-625): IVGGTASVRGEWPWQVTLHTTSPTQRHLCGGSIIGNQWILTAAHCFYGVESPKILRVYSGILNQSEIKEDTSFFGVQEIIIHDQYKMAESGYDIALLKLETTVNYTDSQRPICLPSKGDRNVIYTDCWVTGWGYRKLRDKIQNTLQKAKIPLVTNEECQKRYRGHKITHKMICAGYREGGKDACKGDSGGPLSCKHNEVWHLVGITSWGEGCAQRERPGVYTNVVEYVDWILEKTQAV
purified human Factor XIa, sequence (P03951 19-387 partner): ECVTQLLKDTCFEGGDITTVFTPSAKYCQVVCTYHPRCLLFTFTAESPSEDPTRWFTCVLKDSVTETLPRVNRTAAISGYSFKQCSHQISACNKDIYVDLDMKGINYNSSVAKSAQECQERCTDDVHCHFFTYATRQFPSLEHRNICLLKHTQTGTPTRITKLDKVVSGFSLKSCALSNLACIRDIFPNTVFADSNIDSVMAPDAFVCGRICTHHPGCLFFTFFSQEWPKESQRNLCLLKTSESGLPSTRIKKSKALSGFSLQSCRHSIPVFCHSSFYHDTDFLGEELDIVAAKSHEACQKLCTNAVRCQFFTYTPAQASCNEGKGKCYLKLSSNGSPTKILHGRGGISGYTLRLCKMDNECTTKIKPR

Compound	Ki ([1]; measured at 37° C. (*))	Ki [2, 3]	Ki [1, 4]	Ki [2]
COC(=O)c1ccc(NC(=O)[C@H]2c3cccc(-c4cncnc4)c3CCN2C(=O)c2cn(-c3cccc(Cl)c3F)nn2)cc1 [Example 25, (R)-Methyl 4-(2-(1-(3-chloro-2-fluorophenyl)-1H-1,2,3-triazole-4-carbonyl)-5-(pyrimidin-5-yl)-1,2,3,4-tetrahydroisoquinoline-1-carboxamido)benzoate]	> 4340 nM	3550 nM	–	–
COC(=O)c1ccc(NC(=O)[C@@H]2c3cccc(-c4cncnc4)c3CCN2C(=O)c2cn(-c3cccc(Cl)c3F)nn2)cc1 [Example 26, (S)-Methyl 4-(2-(1-(3-chloro-2-fluorophenyl)-1H-1,2,3-triazole-4-carbonyl)-5-(pyrimidin-5-yl)-1,2,3,4-tetrahydroisoquinoline-1-carboxamido)benzoate]	62 nM	7.07 nM	–	–
CNC(=O)c1ccc(-c2cccc3c2CCN(C(=O)c2cn(-c4cccc(Cl)c4F)nn2)[C@@H]3C(=O)Nc2ccc(C(=O)OC)cc2)cn1 [Example 27, (S)-Methyl 4-(2-(1-(3-chloro-2-fluorophenyl)-1H-1,2,3-triazole-4-carbonyl)-5-(6-(methylcarbamoyl)pyridin-3-yl)-1,2,3,4-tetrahydroisoquinoline-1-carboxamido)benzoate, TFA salt]	46.8 nM	< 5 nM	–	–
COC(=O)c1ccc(NC(=O)[C@@H]2c3cccc(-c4cncnc4)c3CCN2C(=O)[C@H]2CC(c3cccc(Cl)c3F)=NO2)cc1 [Example 28, Methyl 4-((S)-2-((R)-3-(3-chloro-2-fluorophenyl)-4,5-dihydroisoxazole-5-carbonyl)-5-(pyrimidin-5-yl)-1,2,3,4-tetrahydroisoquinoline-1-carboxamido)benzoate]	55.8 nM	< 5 nM	–	–
COC(=O)c1ccc(NC(=O)[C@H]2c3cccc(-c4cncnc4)c3CCN2C(=O)[C@H]2CC(c3cccc(Cl)c3F)=NO2)cc1 [Example 29, Methyl 4-((R)-2-((R)-3-(3-chloro-2-fluorophenyl)-4,5-dihydroisoxazole-5-carbonyl)-5-(pyrimidin-5-yl)-1,2,3,4-tetrahydroisoquinoline-1-carboxamido)benzoate]	1200 nM	58.9 nM	–	–
Nc1ncc(-c2cccc3c2CCN(C(=O)c2cn(-c4cccc(Cl)c4F)nn2)C3C(=O)Nc2ccc(C(=O)O)cc2)cn1 (stereo not shown) [Example 30, 4-(5-(2-aminopyrimidin-5-yl)-2-(1-(3-chloro-2-fluorophenyl)-1H-1,2,3-triazole-4-carbonyl)-1,2,3,4-tetrahydroisoquinoline-1-carboxamido)benzoic acid, TFA salt]	–	< 5 nM	15.7 nM	–
COc1ncc(-c2cccc3c2CCN(C(=O)c2cn(-c4cccc(Cl)c4F)nn2)C3C(=O)Nc2ccc(C(=O)O)cc2)cn1 (stereo not shown) [Example 31, 4-(2-(1-(3-chloro-2-fluorophenyl)-1H-1,2,3-triazole-4-carbonyl)-5-(2-methoxypyrimidin-5-yl)-1,2,3,4-tetrahydroisoquinoline-1-carboxamido)benzoic acid]	–	–	19.9 nM	< 5 nM
N#Cc1ncc(-c2cccc3c2CCN(C(=O)c2cn(-c4cccc(Cl)c4F)nn2)C3C(=O)Nc2ccc(C(=O)O)cc2)cn1 (stereo not shown) [Example 32, 4-(2-(1-(3-chloro-2-fluorophenyl)-1H-1,2,3-triazole-4-carbonyl)-5-(2-cyanopyrimidin-5-yl)-1,2,3,4-tetrahydroisoquinoline-1-carboxamido)benzoic acid]	–	–	17.5 nM	< 5 nM
O=C(O)c1ccc(NC(=O)C2c3cccc(-c4cccnc4)c3CCN2C(=O)c2cn(-c3cccc(Cl)c3F)nn2)cc1 (stereo not shown) [Example 33, 4-(2-(1-(3-chloro-2-fluorophenyl)-1H-1,2,3-triazole-4-carbonyl)-5-(pyridin-3-yl)-1,2,3,4-tetrahydroisoquinoline-1-carboxamido)benzoic acid, TFA salt]	–	< 5 nM	9.54 nM	–
O=C(O)c1ccc(NC(=O)C2c3cccc(-c4cnc(O)nc4)c3CCN2C(=O)c2cn(-c3cccc(Cl)c3F)nn2)cc1 (stereo not shown) [Example 34, 4-(2-(1-(3-chloro-2-fluorophenyl)-1H-1,2,3-triazole-4-carbonyl)-5-(2-hydroxypyrimidin-5-yl)-1,2,3,4-tetrahydroisoquinoline-1-carboxamido)benzoic acid]	–	–	0.46 nM	< 5 nM
O=C(O)c1ccc(NC(=O)C2c3cccc(-c4cncc(F)c4)c3CCN2C(=O)c2cn(-c3cccc(Cl)c3F)nn2)cc1 (stereo not shown) [Example 35, 4-(2-(1-(3-chloro-2-fluorophenyl)-1H-1,2,3-triazole-4-carbonyl)-5-(5-fluoropyridin-3-yl)-1.2,3,4-tetrahydroisoquinoline-1-carboxamido)benzoic acid, TFA salt]	–	< 5 nM	22.9 nM	–
COc1cncc(-c2cccc3c2CCN(C(=O)c2cn(-c4cccc(Cl)c4F)nn2)C3C(=O)Nc2ccc(C(=O)O)cc2)c1 (stereo not shown) [Example 36, 4-(2-(1-(3-chloro-2-fluorophenyl)-1H-1,2,3-triazole-4-carbonyl)-5-(5-methoxypyridin-3-yl)-1,2,3,4-tetrahydroisoquinoline-1-carboxamido)benzoic acid, TFA salt]	–	< 5 nM	26.7 nM	–
CNC(=O)c1cncc(-c2cccc3c2CCN(C(=O)c2cn(-c4cccc(Cl)c4F)nn2)C3C(=O)Nc2ccc(C(=O)O)cc2)c1 (stereo not shown) [Example 37, 4-(2-(1-(3-chloro-2-fluorophenyl)-1H-1,2,3-triazole-4-carbonyl)-5-(5-(methylcarbamoyl)pyridin-3-yl)-1,2,3,4-tetrahydroisoquinoline-1-carboxamido)benzoic acid, TFA salt]	–	< 5 nM	12.9 nM	–
Nc1ccc(-c2cccc3c2CCN(C(=O)c2cn(-c4cccc(Cl)c4F)nn2)C3C(=O)Nc2ccc(C(=O)O)cc2)cn1 (stereo not shown) [Example 39, 4-(5-(6-aminopyridin-3-yl)-2-(1-(3-chloro-2-fluorophenyl)-1H-1,2,3-triazole-4-carbonyl)-1,2,3,4-tetrahydroisoquinoline-1-carboxamido)benzoic acid, bis-TFA salt]	–	< 5 nM	2.63 nM	–
O=C(O)c1ccc(NC(=O)C2c3cccc(-c4cn[nH]c4)c3CCN2C(=O)c2cn(-c3cccc(Cl)c3F)nn2)cc1 (stereo not shown) [Example 41, 4-(2-(1-(3-chloro-2-fluorophenyl)-1H-1,2,3-triazole-4-carbonyl)-5-(1H-pyrazol-4-yl)-1,2,3,4-tetrahydroisoquinoline-1-carboxamido)benzoic acid]	–	–	7.68 nM	< 5 nM
Cn1nccc1-c1cccc2c1CCN(C(=O)c1cn(-c3cccc(Cl)c3F)nn1)C2C(=O)Nc1ccc(C(=O)O)cc1 (stereo not shown) [Example 42, 4-(2-(1-(3-chloro-2-fluorophenyl)-1H-1,2,3-triazole-4-carbonyl)-5-(1-methyl-1H-pyrazol-5-yl)-1,2,3,4-tetrahydroisoquinoline-1-carboxamido)benzoic acid]	–	–	13.1 nM	< 5 nM
Cn1ccc(-c2cccc3c2CCN(C(=O)c2cn(-c4cccc(Cl)c4F)nn2)C3C(=O)Nc2ccc(C(=O)O)cc2)n1 (stereo not shown) [Example 43, 4-(2-(1-(3-chloro-2-fluorophenyl)-1H-1,2,3-triazole-4-carbonyl)-5-(1-methyl-1H-pyrazol-3-yl)-1,2,3,4-tetrahydroisoquinoline-1-carboxamido)benzoic acid]	–	–	16.2 nM	< 5 nM
CNC(=O)c1ccc(-c2cccc3c2CCN(C(=O)c2cn(-c4cccc(Cl)c4F)nn2)[C@@H]3C(=O)Nc2ccc(C(=O)O)cc2)cn1 [Example 44, (S)-4-(2-(1-(3-Chloro-2-fluorophenyl)-1H-1,2,3-triazole-4-carbonyl)-5-(6-(methylcarbamoyl)pyridin-3-yl)-1,2,3,4-tetrahydroisoquinoline-1-carboxamido)benzoic acid, TFA salt]	–	< 5 nM	3.28 nM	–
CNC(=O)c1ccc(-c2cccc3c2CCN(C(=O)c2cn(-c4cccc(Cl)c4F)nn2)[C@H]3C(=O)Nc2ccc(C(=O)O)cc2)cn1 [Example 45, (R)-4-(2-(1-(3-Chloro-2-fluorophenyl)-1H-1,2,3-triazole-4-carbonyl)-5-(6-(methylcarbamoyl)pyridin-3-yl)-1,2,3,4-tetrahydroisoquinoline-1-carboxamido)benzoic acid, TFA salt]	–	20.6 nM	364 nM	–
CN(C)C1CCN(c2cccc3c2CCN(C(=O)c2cn(-c4cccc(Cl)c4F)nn2)[C@H]3C(=O)Nc2ccc(C(=O)O)cc2)CC1 [Example 48, (R)-4-(2-(1-(3-chloro-2-fluorophenyl)-1H-1,2,3-triazole-4-carbonyl)-5-(4-(dimethylamino)piperidin-1-yl)-1,2,3,4-tetrahydroisoquinoline-1-carboxamido)benzoic acid, bis-TFA salt]	–	–	452 nM	89.6 nM
CN(C)C1CCN(c2cccc3c2CCN(C(=O)c2cnn(-c4cccc(Cl)c4F)c2)C3C(=O)Nc2ccc(C(=O)O)cc2)CC1 (stereo not shown) [Example 50, 4-(2-(1-(3-chloro-2-fluorophenyl)-1H-pyrazole-4-carbonyl)-5-(4-(dimethylamino)piperidin-1-yl)-1,2,3,4-tetrahydroisoquinoline-1-carboxamido)benzoic acid, bis-TFA salt]	–	< 5 nM	4.94 nM	–
CN(C)C1CCN(c2cccc3c2CCN(C(=O)c2cn(-c4cccc(Cl)c4F)cn2)C3C(=O)Nc2ccc(C(=O)O)cc2)CC1 (stereo not shown) [Example 53, 4-(2-(1-(3-chloro-2-fluorophenyl)-1H-imidazole-4-carbonyl)-5-(4-(dimethylamino)piperidin-1-yl)-1,2,3,4-tetrahydroisoquinoline-1-carboxamido)benzoic acid, bis-TFA salt]	–	< 5 nM	1.21 nM	–
CN(C)C(=O)C1CCN(c2cccc3c2CCN(C(=O)c2cn(-c4cccc(Cl)c4F)nn2)C3C(=O)Nc2ccc(C(=O)O)cc2)CC1 (stereo not shown) [Example 56, 4-(2-(1-(3-chloro-2-fluorophenyl)-1H-1,2,3-triazole-4-carbonyl)-5-(4-(dimethylcarbamoyl)piperidin-1-yl)-1,2,3,4-tetrahydroisoquinoline-1-carboxamido)benzoic acid, TFA salt]	–	< 5 nM	5.6 nM	–
